Source: patent publication US20260053764A1, “COMPOSITION FOR PREVENTING DETERIORATION IN COGNITIVE FUNCTION AND/OR IMPROVING COGNITIVE FUNCTION” (PHARMA FOODS INTERNATIONAL CO., LTD., priority 2020, published 2026)

System: cognitive function of a human
Assay: Cognitrax test in placebo-controlled randomized double-blind clinical tests A and B
Type: in vivo
Parameters: Reaction time / Complex attention / Cognitive flexibility / Social acuity / Non-verbal reasoning / Working memory / Continuous attention / Simple attention: scale not given here
From the text: A Cognitrax test is known as such an examination that can assess a plurality of domains or items of cognitive function. The Cognitrax test is a cognitive function examination service practiced on the Web based on the cognitive function examination technique developed by CNS Vital Signs in the United States. In the Cognitrax test, among a total of 10 types of tests, which are verbal memory test, visual memory test, finger tapping test, symbol digit coding test (SDC test), Stroop test, shifting attention test, continuous performance test, perception of emotion test, reasoning test and four part continuous performance test, a test is carried out in accordance with the purpose of the examination to digitize the examination result regarding each of a total of 16 types of items at most, which are neurocognition index, composite memory, verbal memory, visual memory, psychomotor speed, reaction time, complex attention, cognitive flexibility, processing speed, executive function, social acuity, non-verbal reasoning, working memory, continuous attention, simple attention and motor speed.
Two types of placebo-controlled randomized double-blind two-group parallel comparison tests were carried out as clinical tests. […] Specifically, capsules comprising 100 mg of dextrin per capsule were used as the placebo food.
The screening examination was carried out to select 60 subjects for each test (a total of 120 subjects). MMSE (Mini Mental State Examination) is an examination for assessing the degree of progression of dementia or the like based on the score thereof with 30 as the perfect score, wherein dementia is suspected with a score of 23 or lower.
• (1) Japanese male and female at the age of 40 or higher • (2) People aware of reduction in cognitive function • (3) People who can continuously ingest the test food every day for 12 weeks • (4) People with an MMSE score of 24 or higher • (5) People who have received sufficient explanation of the purpose/content of the clinical test, have the ability to give consent, voluntarily applied to participate in the clinical test with sufficient understanding, and gave consent to the participation in the clinical test on paper
The total of 120 subjects were randomly divided into test A active group, test A placebo group, test B active group and test B placebo group with 30 subjects in each group. Each subject of the test A active group ingested two capsules of the active food, each subject of the test A placebo group ingested two capsules of the placebo food, each subject of the test B active group ingested one capsule of the active food and each subject of the test B placebo group ingested one capsule of the placebo food.
Each subject followed the schedule shown in the table below and ingested one or two of the assigned capsules together with water for 12 weeks from two weeks after the initial screening examination. All subjects had no particular instruction during the ingestion period and freely took their meals.
As shown with ● in the test schedule in Table 1, Cognitrax was carried out a total of five times, which are upon screening, before starting test food sample ingestion, after four weeks of ingestion, after eight weeks of ingestion and after twelve weeks of ingestion, and the RBANS neuropsychological test was carried out a total of two times, which are before staring test food ingestion and after twelve weeks of ingestion.

[1] = test B 100 mg, before ingestion
[2] = test B 100 mg, before ingestion, mean ± SD

NCCCC(=O)O [GABA, γ-aminobutyric acid]
Cognition flexibility: difference between active food and placebo food groups (test B 100 mg, 4 w): −3.6 | Complex attention: difference between active food and placebo food groups (test B 100 mg, 4 w): −4.0 | Composite memory: difference between active food and placebo food groups (test B 100 mg, 4 w): 7.2 | Continuous attention: difference between active food and placebo food groups (test B 100 mg, 4 w): −0.6 | Executive function: difference between active food and placebo food groups (test B 100 mg, 4 w): −3.2 | Motor speed: difference between active food and placebo food groups (test B 100 mg, 4 w): 6.9 | Non-verbal reasoning: difference between active food and placebo food groups (test B 100 mg, 4 w): 0.5 | Processing speed: difference between active food and placebo food groups (test B 100 mg, 4 w): 0.8 | Psychomotor speed: difference between active food and placebo food groups (test B 100 mg, 4 w): 5.3 | Reaction time: difference between active food and placebo food groups (test B 100 mg, 4 w): 0.8 | Simple attention: difference between active food and placebo food groups (test B 100 mg, 4 w): −5.8 | Social acuity: difference between active food and placebo food groups (test B 100 mg, 4 w): −4.4 | Verbal memory: difference between active food and placebo food groups (test B 100 mg, 4 w): 9.1 | Visual memory: difference between active food and placebo food groups (test B 100 mg, 4 w): 2.4 | Working memory: difference between active food and placebo food groups (test B 100 mg, 4 w): 0.4 | Cognitive flexibility (test B 100 mg, 4 w, mean ± SD): 105.8 ± 11.3 | Complex attention (test B 100 mg, 4 w, mean ± SD): 106.3 ± 12.9 | Continuous attention (test B 100 mg, 4 w, mean ± SD): 111.8 ± 7.2 | Reaction time (test B 100 mg, 4 w, mean ± SD): 97.8 ± 10.8 | Simple attention (test B 100 mg, 4 w, mean ± SD): 97.8 ± 25.2 | Social acuity (test B 100 mg, 4 w, mean ± SD): 90.5 ± 16.7 | Working memory (test B 100 mg, 4 w, mean ± SD): 110.4 ± 9.3 | Cognition flexibility: difference between active food and placebo food groups (test B 100 mg, 8 w): −0.5 | Complex attention: difference between active food and placebo food groups (test B 100 mg, 8 w): −0.4 | Composite memory: difference between active food and placebo food groups (test B 100 mg, 8 w): 7.4 | Continuous attention: difference between active food and placebo food groups (test B 100 mg, 8 w): −0.8 | Executive function: difference between active food and placebo food groups (test B 100 mg, 8 w): −0.4 | Motor speed: difference between active food and placebo food groups (test B 100 mg, 8 w): 7.3 | Non-verbal reasoning: difference between active food and placebo food groups (test B 100 mg, 8 w): 0.5 | Processing speed: difference between active food and placebo food groups (test B 100 mg, 8 w): 1.5 | Psychomotor speed: difference between active food and placebo food groups (test B 100 mg, 8 w): 6.3 | Reaction time: difference between active food and placebo food groups (test B 100 mg, 8 w): 1.4 | Simple attention: difference between active food and placebo food groups (test B 100 mg, 8 w): 2.8 | Social acuity: difference between active food and placebo food groups (test B 100 mg, 8 w): 6.1 | Verbal memory: difference between active food and placebo food groups (test B 100 mg, 8 w): 8.8 | Visual memory: difference between active food and placebo food groups (test B 100 mg, 8 w): 3.1 | Working memory: difference between active food and placebo food groups (test B 100 mg, 8 w): −1.8 | Complex attention (test B 100 mg, 8 w, mean ± SD): 109.6 ± 10.3 | Continuous attention (test B 100 mg, 8 w, mean ± SD): 110.2 ± 8.9 | Non-verbal reasoning (test B 100 mg, 8 w, mean ± SD): 106.2 ± 12.2 | Reaction time (test B 100 mg, 8 w, mean ± SD): 97.9 ± 10.0 | Simple attention (test B 100 mg, 8 w, mean ± SD): 101.3 ± 13.0 | Social acuity (test B 100 mg, 8 w, mean ± SD): 95.4 ± 17.0 | Working memory (test B 100 mg, 8 w, mean ± SD): 109.8 ± 9.5 | Cognition flexibility: difference between active food and placebo food groups (test B 100 mg, 12 w): −2.3 | Complex attention: difference between active food and placebo food groups (test B 100 mg, 12 w): −2.5 | Composite memory: difference between active food and placebo food groups (test B 100 mg, 12 w): 5.5 | Continuous attention: difference between active food and placebo food groups (test B 100 mg, 12 w): 0.0 | Executive function: difference between active food and placebo food groups (test B 100 mg, 12 w): −2.4 | Motor speed: difference between active food and placebo food groups (test B 100 mg, 12 w): 6.5 | Non-verbal reasoning: difference between active food and placebo food groups (test B 100 mg, 12 w): 3.9 | Processing speed: difference between active food and placebo food groups (test B 100 mg, 12 w): 2.4 | Psychomotor speed: difference between active food and placebo food groups (test B 100 mg, 12 w): 5.4 | Reaction time: difference between active food and placebo food groups (test B 100 mg, 12 w): −1.7 | Simple attention: difference between active food and placebo food groups (test B 100 mg, 12 w): −6.5 | Social acuity: difference between active food and placebo food groups (test B 100 mg, 12 w): 4.6 | Verbal memory: difference between active food and placebo food groups (test B 100 mg, 12 w): 6.8 | Visual memory: difference between active food and placebo food groups (test B 100 mg, 12 w): 2.1 | Working memory: difference between active food and placebo food groups (test B 100 mg, 12 w): 0.9 | Complex attention (test B 100 mg, 12 w, mean ± SD): 109.9 ± 10.1 | Continuous attention (test B 100 mg, 12 w, mean ± SD): 110.8 ± 13.8 | Motor speed (test B 100 mg, 12 w, mean ± SD): 108.3 ± 12.9 | Non-verbal reasoning (test B 100 mg, 12 w, mean ± SD): 107.5 ± 10.6 | Simple attention (test B 100 mg, 12 w, mean ± SD): 99.2 ± 21.3 | Social acuity (test B 100 mg, 12 w, mean ± SD): 97.2 ± 17.0 | Working memory (test B 100 mg, 12 w, mean ± SD): 112.2 ± 7.9 | Cognition flexibility: difference between active food and placebo food groups [1]: 2.4 | Complex attention: difference between active food and placebo food groups [1]: 3.0 | Composite memory: difference between active food and placebo food groups [1]: 5.2 | Continuous attention: difference between active food and placebo food groups [1]: 1.2 | Executive function: difference between active food and placebo food groups [1]: 2.1 | Motor speed: difference between active food and placebo food groups [1]: 6.4 | Non-verbal reasoning: difference between active food and placebo food groups [1]: 3.1 | Processing speed: difference between active food and placebo food groups [1]: 1.5 | Psychomotor speed: difference between active food and placebo food groups [1]: 4.5 | Reaction time: difference between active food and placebo food groups [1]: 1.9 | Simple attention: difference between active food and placebo food groups [1]: 3.3 | Social acuity: difference between active food and placebo food groups [1]: 0.8 | Verbal memory: difference between active food and placebo food groups [1]: 6.4 | Visual memory: difference between active food and placebo food groups [1]: 2.0 | Working memory: difference between active food and placebo food groups [1]: 2.6 | Cognitive flexibility [2]: 105.9 ± 10.0 | Continuous attention [2]: 111.6 ± 6.9 | Executive function [2]: 105.5 ± 9.9 | Non-verbal reasoning [2]: 102.6 ± 14.1 | Reaction time [2]: 98.1 ± 9.0 | Simple attention [2]: 101.2 ± 14.9 | Social acuity [2]: 92.6 ± 16.0 | Working memory [2]: 110.5 ± 7.9 | scores regarding motor speed, GABA group compared to the placebo group (test B, at least after eight weeks of ingestion): significant improvement
